Results taken from US10703740B2, “Substituted benzimidazoles, their preparation and their use as pharmaceuticals” (NEOMED Institute, priority 2015, dated 2020).
Like-named read-outs stand apart in the source and are kept apart here.

How the values were obtained:
[1] = molecular target: BRD4(BD1) (Homo sapiens (Human), UniProt O60885); experiment: In vitro bromodomain inhibition assay (AlphaLISA); assay type: binding; settings: His-tagged BRD4 BD1 200 nM, biotinylated H4-tetraacetyl peptide 200 nM
Protocol: To measure activity of bromodomain inhibitors, a His-epitope tagged BRD4 BD149-170 is purchased from BPS Bioscience. BRD4 binding and inhibition is assessed by monitoring the engagement of biotinylated H4-tetraacetyl peptide (H4K5/8/12/16; AnaSpec #64989-025) with the target using the AlphaLISA technology (Perkin-Elmer). Specifically, in a 384 well OptiPlate, BRD4(BD1) (200 nM final) is pre-incubated with either DMSO (final 1.0% DMSO) or a compound dilution series in DMSO. All reagents are diluted in assay buffer containing 50 mM HEPES (pH 7.4), 100 mM NaCl, 0.1% (w/v) BSA, and 0.05% (w/v) CHAPS. After a 30 minute incubation at rt, H4 peptide is added (200 nM final) and the reaction is incubated an additional 30 minutes at rt. Alpha streptavidin donor beads and AlphaLISA nickel chelate acceptor beads are then added to a final concentration of 10 μg/mL each. After one hour, equilibration plates are read on an Envision instrument and IC50s calculated using a four parameter non-linear curve fit (results are shown in Table 1).

[2] = tested on: human C-Myc transcription in MV-4-11 cells; experiment: Transcription of human C-Myc in human leukemic MV-4-11 cells (QuantiGene 2.0); assay type: cell-based; settings: inhibition of C-Myc mRNA, 4 hours treatment, read-out: IC50 MV-4-11 Cell
Protocol: The effect of compounds on transcription of human C-Myc gene is monitored in human B-myelomonocytic leukemia cell line MV-4-11 (from American Type Culture Collection (ATCC), Manassas, Va., USA) using QuantiGene 2.0 assay kit (Affymetrix, Santa Clara, Calif., USA).
Typically, 8,000 MV-4-11 cells are plated in sterile 96-well plates (Costar #3598 from Fisher Scientific Canada, Ottawa, Ontario, Canada) in Iscove's medium supplemented with 10% fetal bovine serum, glutamine (2 mM), and penicillin (100 I.U.) and streptomycin (100 μg/mL) (all from Wisent Inc., St. Bruno, Quebec, Canada). Compounds are dissolved in DMSO at 30 mM. A series of 1:3 dilutions are first made in DMSO, and further 1:100 dilutions are made in serum-containing cell culture media. The final concentration of DMSO is 0.1% in cell culture media. After cells are treated with various concentrations of test compound for 4 hours, cells are lysed using Quantigene 2.0 sample processing kit (# QS0100). C-Myc mRNA is detected using a QuantiGene 2.0 assay kit (# QS0009) with gene-specific probe to human C-Myc (# SA-50182) following the manufacturer's recommendations. Luminescene signals are read on Flexstation II microplate reader (Molecular Devices, Sunnyvale, Calif., USA).

Structure (SMILES) | IC50 [1] [nM] | IC50 ([2]; Homo sapiens, MV4-11, 4 h) [nM] | IC50 [2] [nM]
COCCn1c(C2CC2)nc2ccc(-c3cc(C)c(=O)n(C)c3)cc21 [Compound 7, 5-[2-cyclopropyl-3-(2-methoxyethyl)benzimidazol-5-yl]-1,3-dimethyl-pyridin-2-one] | 280 | 520 | 
Cc1cc(-c2ccc3nc(C4CC4)n(CCOC(F)(F)F)c3c2)cn(C)c1=O [Compound 2, 5-[2-cyclopropyl-3-[2-(trifluoromethoxy)ethyl]benzimidazol-5-yl]-1,3-dimethylpyridin-2-one] | 190 | 86 | 
COC[C@@H](C)n1c(C)nc2ccc(-c3cc(C)c(=O)n(C)c3)cc21 [Compound 11, 5-[3-[(1R)-2-methoxy-1-methyl-ethyl]-2-methyl-benzimidazol-5-yl]-1,3-dimethyl pyridin-2-one] | 98 | 170 | 
Cn1cc(-c2ccc3nc(C4CC4)n(CCOC(F)(F)F)c3c2)cc(C(F)(F)F)c1=O [Compound 13, 5-[2-cyclopropyl-3-[2-(trifluoromethoxy)ethyl]benzimidazol-5-yl]-1-methyl-3-(trifluoromethyl)pyridin-2-one] | 810 | 850 | 
COC[C@@H](C)n1cnc2ccc(-c3cc(C)c(=O)n(C)c3)cc21 [Compound 12, 5-[3-[(1R)-2-methoxy-1-methyl-ethyl]benzimidazol-5-yl]-1,3-dimethyl-pyridin-2-one] | 330 | 550 | 
Cc1cc(-c2ccc3nc(C)n(CCOC(F)(F)F)c3c2)cn(C)c1=O [Compound 5, 1,3-dimethyl-5-[2-methyl-3-[2-(trifluoromethoxy)ethyl]benzimidazol-5-yl]pyridin-2-one] | 190 | 230 | 
COC[C@@H](C)n1c(C2CCOCC2)nc2ccc(-c3cc(C)c(=O)n(C)c3)cc21 [Compound 10, 5-[3-[(1R)-2-methoxy-1-methyl-ethyl]-2-tetrahydropyran-4-yl-benzimidazol-5-yl]-1,3-dimethyl-pyridin-2-one] | 99 | 62 | 
Cc1cc(-c2ccc3nc(C4CCC4)n(CCOC(F)(F)F)c3c2)cn(C)c1=O [Compound 6, 5-[2-cyclobutyl-3-[2-(trifluoromethoxy)ethyl]benzimidazol-5-yl]-1,3-dimethyl-pyridin-2-one] | 91 | 56 | 
Cc1cc(-c2ccc3ncn(CCOC(F)(F)F)c3c2)cn(C)c1=O [Compound 3, 1,3-dimethyl-5-[3-[2-(trifluoromethoxy)ethyl]benzimidazol-5-yl]pyridin-2-one] | 310 | 95 | 
COCCn1c(C)nc2ccc(-c3cc(C)c(=O)n(C)c3)cc21 [Compound 8, 5-[3-(2-methoxyethyl)-2-methyl-benzimidazol-5-yl]-1,3-dimethylpyridin-2-one] | 210 | 790 | 
COC[C@@H](C)n1c(C2CC2)nc2ccc(-c3cc(C)c(=O)n(C)c3)cc21 [Compound 15, 5-[2-cyclopropyl-3-[(1R)-2-methoxy-1-methylethyl]benzimidazol-5-yl]-1,3-dimethyl pyridin-2-one] | 100 | 240 | 
Cc1cc(-c2ccc3nc(C4CCOCC4)n(C[C@H](C)OC(C)C)c3c2)cn(C)c1=O [Compound 67, (S)-5-(1-(2-isopropoxypropyl)-2-(tetrahydro-2H-pyran-4-yl)-1H-benzo[d]imidazol-6-yl)-1,3-dimethylpyridin-2(1H)-one] |  | 26 | 
COCCn1c(C2CCOCC2)nc2ccc(-c3cc(C)c(=O)n(C)c3)cc21 [Compound 9, 5-[3-(2-methoxyethyl)-2-tetrahydropyran-4-yl-benzimidazol-5-yl]-1,3-dimethyl pyridin-2-one] | 220 | 250 | 
COC(C)Cn1cnc2ccc(-c3cc(C)c(=O)n(C)c3)cc21 (centres unmarked) [Compound 22a, 5-[3-(2-methoxypropyl)benzimidazol-5-yl]-1,3-dimethylpyridin-2-one] |  | 840 | 
CCc1cc(-c2ccc3nc(C4CC4)n(CCOC(F)(F)F)c3c2)cn(C)c1=O [Compound 14, 5-(2 cyclopropyl-3-(2-(trifluoromethoxy)ethyl)benzimidazol-5-yl)-3-ethyl-1-methylpyridin-2-one] |  | 250 | 
CCO[C@H](C)Cn1c(C2CCOCC2)nc2ccc(-c3cc(C)c(=O)n(C)c3)cc21 [Compound 39, (R)-5-(1-(2-ethoxypropyl)-2-(tetrahydro-2H-pyran-4-yl)-1H-benzo[d]imidazol-6-yl)-1,3-dimethylpyridin-2(1H)-one] |  | 84 | 
Cc1cc(-c2ccc3nc(C4CCOCC4)n(CCOC(F)(F)F)c3c2)cn(C)c1=O [Compound 1, 1,3-dimethyl-5-[2-tetrahydropyran-4-yl-3-[2-(trifluoromethoxy)ethyl]benzimidazol-5-yl]pyridin-2-one] | 140 | 76 | 
COC[C@H](C)n1c(C2CC2)nc2ccc(-c3cc(C)c(=O)n(C)c3)cc21 [Compound 17, 5-[2-cyclopropyl-3-[(1S)-2-methoxy-1-methylethyl]benzimidazol-5-yl]-1,3-dimethyl pyridin-2-one] |  | 810 | 
CCO[C@H](C)Cn1c(C2CC(F)(F)C2)nc2ccc(-c3cc(C)c(=O)n(C)c3)cc21 [Compound 54, (R)-5-(2-(3,3-difluorocyclobutyl)-1-(2-ethoxypropyl)-1H-benzo[d]imidazol-6-yl)-1,3-dimethylpyridin-2(1H)-one] |  | 170 | 
COC1CC(c2nc3ccc(-c4cc(C)c(=O)n(C)c4)cc3n2CCOCC(F)(F)F)C1 (centres unmarked) [Compound 62, 5-[2-(3-methoxycyclobutyl)-1-(2-(2,2,2-trifluoroethoxy)ethyl)-1H-benzo[d]imidazol-6-yl]-1,3-dimethylpyridin-2(1H)-one] |  | 21 | 
CCO[C@@H](C)Cn1c(C2CCC(F)(F)CC2)nc2ccc(-c3cc(C)c(=O)n(C)c3)cc21 [Compound 55, (S)-5-(2-(4,4-difluorocyclohexyl)-1-(2-ethoxypropyl)-1H-benzo[d]imidazol-6-yl)-1,3-dimethylpyridin-2(1H)-one] |  | 53 | 
COC(C)Cn1c(C2CC2)nc2ccc(-c3cc(C)c(=O)n(C)c3)cc21 (single isomer, unassigned) [Compound 23b, 5-[2-cyclopropyl-3-(2-methoxypropyl)benzimidazol-5-yl]-1,3-dimethylpyridin-2-one] |  |  | 730
CC(=O)N1CCC(c2nc3ccc(-c4cc(C)c(=O)n(C)c4)cc3n2CCOC(F)(F)F)CC1 [Compound 4, 5-[2-(1-acetyl-4-piperidyl)-3-[2-(trifluoromethoxy)ethyl]benzimidazol-5-yl]-1,3-dimethylpyridin-2-one] | 130 | 89 | 
COC(C)Cn1cnc2ccc(-c3cc(C)c(=O)n(C)c3)cc21 (centres unmarked) [Compound 22b, 5-[3-(2-methoxypropyl)benzimidazol-5-yl]-1,3-dimethylpyridin-2-one] |  |  | 780
